Bridge positions count the residues as written; N and C are the ends. Peptide text beside a SMILES is read from it.
target: T1, Serine protease 1 (Bos taurus, UniProt P00760); assay: Inhibition of bovine beta-trypsin incubated for 5 mins using BAPNA as substrate by colorimetric assay
T1 sequence (P00760 whole entry): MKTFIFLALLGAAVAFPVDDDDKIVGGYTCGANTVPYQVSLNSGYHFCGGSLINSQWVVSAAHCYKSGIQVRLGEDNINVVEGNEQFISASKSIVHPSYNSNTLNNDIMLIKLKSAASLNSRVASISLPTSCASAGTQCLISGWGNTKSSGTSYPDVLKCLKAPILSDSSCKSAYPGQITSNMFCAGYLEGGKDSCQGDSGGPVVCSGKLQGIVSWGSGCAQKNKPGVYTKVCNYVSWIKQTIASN

Ki, 0.02 to 0.03 nM:
CC[C@H](C)[C@@H]1NC(=O)[C@H](C)NC(=O)[C@H](CO)NC(=O)[C@H](CO)NC(=O)[C@H]([C@@H](C)CC)NC(=O)[C@@H]2CSSC[C@@H]3NC(=O)[C@H](C(C)C)NC(=O)[C@H](CCCCN)NC(=O)[C@H](CO)NC(=O)[C@H](CCCCN)NC(=O)[C@@H]4CSSC[C@H](NC(=O)[C@H](CO)NC(=O)[C@H](CCC(=O)O)NC(=O)CNC(=O)[C@H](CSSC[C@H](NC(=O)CNC1=O)C(=O)N[C@@H](CO)C(=O)N4)NC(=O)[C@@H]1CCCN1C(=O)[C@H]([C@@H](C)CC)NC(=O)CNC(=O)[C@H](CC(N)=O)NC(=O)[C@H](CCCNC(=N)N)NC(=O)[C@H](Cc1ccc(O)cc1)NC3=O)C(=O)N[C@@H](C(C)C)C(=O)N[C@@H](Cc1c[nH]c3ccccc13)C(=O)N[C@@H]([C@@H](C)CC)C(=O)N1CCC[C@H]1C(=O)N2 (cyclo(AIGCSCKSKVCYRNGIPCGESCVWIPCISS); disulfide 4-18, 6-22, 11-27)
CC[C@H](C)[C@@H]1NC(=O)[C@@H]2CCCN2C(=O)[C@H](Cc2c[nH]c3ccccc23)NC(=O)[C@H]([C@@H](C)O)NC(=O)[C@@H]2CSSC[C@@H]3NC(=O)[C@H]([C@@H](C)O)NC(=O)[C@H](CCC(=O)O)NC(=O)CNC(=O)[C@@H]4CSSC[C@H](NC(=O)CNC(=O)[C@@H]5CCCN5C(=O)[C@H]([C@@H](C)O)NC(=O)[C@H](CC(N)=O)NC(=O)[C@H](CSSC[C@H](NC1=O)C(=O)N[C@@H]([C@@H](C)O)C(=O)N[C@@H](CCCNC(=N)N)C(=O)N[C@@H](CC(=O)O)C(=O)NCC(=O)N[C@@H](CC(C)C)C(=O)N1CCC[C@H]1C(=O)N[C@@H](C(C)C)C(=O)N4)NC(=O)[C@H]([C@@H](C)O)NC(=O)CNC(=O)CNC(=O)[C@H](Cc1ccccc1)NC3=O)C(=O)N[C@@H](CO)C(=O)N2 (cyclo(CFGGTCNTPGCSCTWPICTRDGLPVCGET); disulfide 1-13, 6-18, 11-26)
CCC(C)[C@@H]1NC(=O)CNC(=O)[C@H](CC(N)=O)NC(=O)[C@H](Cc2ccc(O)cc2)NC(=O)[C@@H]2CSSC[C@@H]3NC(=O)[C@@H]4CCCN4C(=O)[C@H](C(C)CC)NC(=O)[C@H](Cc4ccc(O)cc4)NC(=O)[C@H](C(C)C)NC(=O)[C@@H]4CSSC[C@H](NC(=O)[C@H](CO)NC(=O)[C@H](CSSC[C@H](NC(=O)[C@@H]5CCCN5C1=O)C(=O)N[C@@H](C)C(=O)N[C@@H](CCC(=O)O)C(=O)N[C@@H](CO)C(=O)N4)NC(=O)CNC(=O)[C@H](CC(C)C)NC(=O)[C@H](CC(C)C)NC(=O)[C@H](C)NC(=O)[C@H]([C@@H](C)O)NC(=O)[C@H](C(C)C)NC(=O)[C@H]([C@@H](C)O)NC3=O)C(=O)N[C@@H](CO)C(=O)N[C@@H](CC(N)=O)C(=O)N[C@@H](CCCNC(=N)N)C(=O)N[C@@H](C(C)C)C(=O)N2 (stereo partly drawn)
